Values after ≈ are worked out from the molar mass of the structure shown.

The target in one data set is T1, acid ceramidase (Homo sapiens, UniProt Q13510).
T1 construct: Cell lysates overexpressing acid ceramidase were used as the enzyme source; expressed in transfected cells
T1 sequence (Q13510 22-395): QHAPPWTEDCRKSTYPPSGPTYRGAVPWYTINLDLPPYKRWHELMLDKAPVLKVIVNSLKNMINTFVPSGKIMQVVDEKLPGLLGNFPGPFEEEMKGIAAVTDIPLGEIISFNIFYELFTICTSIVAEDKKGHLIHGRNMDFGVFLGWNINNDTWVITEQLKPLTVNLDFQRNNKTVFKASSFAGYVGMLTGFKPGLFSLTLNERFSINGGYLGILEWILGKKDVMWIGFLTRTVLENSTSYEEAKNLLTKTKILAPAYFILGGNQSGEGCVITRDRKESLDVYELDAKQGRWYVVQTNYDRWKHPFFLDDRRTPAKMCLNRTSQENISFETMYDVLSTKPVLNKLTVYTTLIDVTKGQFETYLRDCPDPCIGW
The data set is described as follows: Acid ceramidase inhibition, biochemical fluorescent assay with cell lysates overexpressing acid ceramidase, substrate Rbm14-12. The conditions noted are these: substrate Rbm14-12 6.3 μM. An outline of the steps:
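Lysate of cells overexpressing acid ceramidase (10 μg protein) preincubated with compound dose series 1 hr at RT in 25 mM NaAC, 100 mM NaCl, pH 4.5, then reacted 1 hr with 6.3 μM Rbm14-12. Stopped with NaIO4/glycine buffer pH 10.6, fluorescence ex360/em446; IC50 by four-parameter fit.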

Data set [1] can be described thus: Compound solubility in water.
The mark [2] stands for this setting: pH 4.5, 1 hr preincubation at RT.

For `CN(C)C1CCN(c2cccc3c2ncn3C(=O)NCCCc2ccccc2)C1` (stereo not shown) [Example 264, 4-(3-(Dimethylamino)pyrrolidin-1-yl)-N-(3-phenylpropyl)-1H-benzo[d]imidazole-1-carboxamide], at acid ceramidase (pH 4.5), the IC50 (commonly the point on the concentration scale where inhibition reaches its midpoint) is below 200 nM. Besides, in data set [1], the concentration in solution (solubility) was 21 µg/mL (≈ 53.6 µM).
On acid ceramidase (pH 4.5), `CC(C)C#CCNC(=O)n1cnc2c(N3CCN(C)CC3)cccc21` [Example 280, N-(4-Methylpent-2-ynyl)-4-(4-methylpiperazin-1-yl)-1H-benzo[d]imidazole-1-carboxamide] returned an IC50 below 200 nM. The concentration in solution in data set [1] (solubility) was 16 µg/mL (≈ 47.1 µM).
With `CN1CC2CC1CN2C1CN(c2cccc3c2ncn3C(=O)NCCOc2ccccc2)C1` (stereo not shown) [Example 356, 4-(3-(5-Methyl-2,5-diazabicyclo[2.2.1]heptan-2-yl)azetidin-1-yl)-N-(2-phenoxyethyl)-1H-benzo[d]imidazole-1-carboxamide], the half-inhibitory concentration (IC50) against acid ceramidase (setting [2]) was below 200 nM. Moreover, the solubility (as a rule, how much of the substance goes into solution per volume) in data set [1] came to 46 µg/mL (≈ 103 µM).
On to `O=C(NC1CCCCC1)n1cnc2c(N3CCOCC3)cccc21` [Example 149, N-Cyclohexyl-4-morpholino-1H-benzo[d]imidazole-1-carboxamide], for which the IC50 on acid ceramidase (setting [2]) is above 1000 nM. Besides, in data set [1], the concentration in solution (solubility) came to 15 µg/mL (≈ 45.7 µM).
Regarding `O=C(NCCOc1ccc(F)cc1)n1cnc2ccccc21` [Example 47, N-(2-(4-Fluorophenoxy)ethyl)-1H-benzo[d]imidazole-1-carboxamide], the half-maximal inhibitory concentration (IC50) at acid ceramidase (setting [2]) is below 200 nM. This compound yielded a solubility in data set [1] of 4.3 µg/mL (≈ 14.4 µM).
On to `COc1nc2ccc(N3[C@@H]4CC[C@H]3COC4)cc2n1C(=O)NCCCc1ccccc1` [Example 237b, 6-((1R,5S)-3-oxa-8-azabicyclo[3.2.1]octan-8-yl)-2-methoxy-N-(3-phenylpropyl)-1H-benzo[d]imidazole-1-carboxamide], for which the half-inhibitory concentration (IC50) against acid ceramidase (pH 4.5) was below 200 nM. The same compound returned a solubility in data set [1] of 5 µg/mL (≈ 11.9 µM).
Taken in the same sequence, the figures for `CC(C)CCNC(=O)n1cnc2c(N3CCO[C@@H](C)C3)cccc21` [Example 171, (S)—N-iso-Pentyl-4-(2-methylmorpholino)-1H-benzo[d]imidazole-1-carboxamide] were 200 to 1000 nM and 15 µg/mL (≈ 45.4 µM).
For the compound `CC(C)CNC(=O)n1cnc2cc(-c3cncnc3)c(C(F)(F)F)cc21` [Example 77a, N-iso-Butyl-5-(pyrimidin-5-yl)-6-(trifluoromethyl)-1H-benzo[d]imidazole-1-carboxamide], on acid ceramidase (setting [2]), the IC50 is below 200 nM. In data set [1], this compound had a solubility of 14.5 µg/mL (≈ 39.9 µM).
In turn, `Cc1ccc(CNC(=O)n2cnc3c(N4CCN(C)CC4)cccc32)cc1` [Example 323, N-(4-Methylbenzyl)-4-(4-methylpiperazin-1-yl)-1H-benzo[d]imidazole-1-carboxamide] gave an IC50 on acid ceramidase (pH 4.5) below 200 nM. Besides, the concentration in solution in data set [1] (solubility) came to 16 µg/mL (≈ 44 µM).
At acid ceramidase (setting [2]), `COc1ccc2c(c1)ncn2C(=O)NCCc1ccccc1` [Example 25a, 5-Methoxy-N-phenethyl-1H-benzo[d]imidazole-1-carboxamide] had an IC50 below 200 nM. In data set [1], this compound came in with a solubility of 2.6 µg/mL (≈ 8.8 µM).
On to `O=C(NCCCc1ccccc1)n1cnc2c(N3CCN(C4COC4)CC3)cccc21` [Example 286, 4-(4-(Oxetan-3-yl)piperazin-1-yl)-N-(3-phenylpropyl)-1H-benzo[d]imidazole-1-carboxamide], for which the IC50 at acid ceramidase (pH 4.5) is below 200 nM. In addition, in data set [1], the solubility turned out to be 24 µg/mL (≈ 57.2 µM).
`COc1nc2cc(N3CCOCC3)ccc2n1C(=O)NCCCc1ccccc1` [Example 134b, 2-methoxy-5-morpholino-N-(3-phenylpropyl)-1H-benzo[d]imidazole-1-carboxamide]: the IC50 against acid ceramidase (setting [2]) was below 200 nM. Besides, in data set [1], the solubility was 16 µg/mL (≈ 40.6 µM).
`COc1nc2ccc(N3CCOCC3)cc2n1C(=O)NCC1CC1Cc1ccccc1` (stereo not shown) [Example 231a, N-((2-benzylcyclopropyl)methyl)-2-methoxy-6-morpholino-1H-benzo[d]imidazole-1-carboxamide] had an IC50 on acid ceramidase (pH 4.5) of 200 to 1000 nM. The compound further returned a solubility in data set [1] of 14 µg/mL (≈ 33.3 µM).
Taken in the same sequence, the figures for `COc1nc2cc(N3CCOCC3)ccc2n1C(=O)NCCCc1ccc(F)cc1` [Example 221b] were below 200 nM and 15 µg/mL (≈ 36.4 µM).
The compound `CN1CCN(C2CN(c3cccc4c3ncn4C(=O)NCCOc3ccccc3)C2)CC1` [Example 314, 4-(3-(4-Methylpiperazin-1-yl)azetidin-1-yl)-N-(2-phenoxyethyl)-1H-benzo[d]imidazole-1-carboxamide] returned an IC50 against acid ceramidase (pH 4.5) below 200 nM. This compound came in with a solubility in data set [1] of 35 µg/mL (≈ 80.5 µM).
Turning to `Cc1ccc(CCNC(=O)n2cnc3ccccc32)cc1` [Example 108, N-(4-Methylphenethyl)-1H-benzo[d]imidazole-1-carboxamide], the IC50 at acid ceramidase (setting [2]) was below 200 nM. The compound further registered a solubility in data set [1] of 6.8 µg/mL (≈ 24.3 µM).
For the compound `CC(C)C#CCNC(=O)n1cnc2c(N3CCC4(CCCN4C)CC3)cccc21` [Example 311, 4-(1-Methyl-1,8-diazaspiro[4.5]decan-8-yl)-N-(4-methylpent-2-yn-1-yl)-1H-benzo[d]imidazole-1-carboxamide], the half-inhibitory concentration (IC50) against acid ceramidase (pH 4.5) is below 200 nM. In addition, the solubility in data set [1] was determined as 31 µg/mL (≈ 78.8 µM).
Turning to `O=C(NCCc1ccccc1)n1cnc2ccc(C(F)(F)F)nc21` [Example 66a, N-Phenethyl-5-(trifluoromethyl)-3H-imidazo[4,5-b]pyridine-3-carboxamide], the IC50 on acid ceramidase (setting [2]) is below 200 nM. For the same compound, in data set [1], the concentration in solution (solubility) was 6 µg/mL (≈ 17.9 µM).
The compound `CN1CCN(c2cccc3c2ncn3C(=O)NCc2ccn3cccc3c2)CC1` [Example 347, N-(Indolizin-7-ylmethyl)-4-(4-methylpiperazin-1-yl)-1H-benzo[d]imidazole-1-carboxamide] came in with an IC50 on acid ceramidase (setting [2]) below 200 nM. Further, the concentration in solution in data set [1] (solubility) was 25 µg/mL (≈ 64.4 µM).
On to `COc1cc2c(cc1-c1cncnc1)ncn2C(=O)NCC(C)C` [Example 79a, N-iso-Butyl-6-methoxy-5-(pyrimidin-5-yl)-1H-benzo[d]imidazole-1-carboxamide], for which the IC50 against acid ceramidase (setting [2]) was 200 to 1000 nM. This compound also returned a solubility in data set [1] of 22.2 µg/mL (≈ 68.2 µM).
As for `O=C(NCCc1ccccc1)n1cnc2ncccc21` [Example 19a, N-Phenethyl-1H-imidazo[4,5-b]pyridine-1-carboxamide], on acid ceramidase (setting [2]), the IC50 was below 200 nM. Also, the solubility in data set [1] was 26.1 µg/mL (≈ 98 µM).
On to `COc1nc2ccc(N3CCOCC3)cc2n1C(=O)NCCc1ccccc1` [28 & 29a], for which the IC50 against acid ceramidase (setting [2]) lay in the range of 200 to 1000 nM. The compound also yielded a solubility in data set [1] of 18 µg/mL (≈ 47.3 µM).
`CC(C)CCNC(=O)n1cnc2c(N3CCN4CCCCC4C3)cccc21` (stereo not shown) [Example 198, 4-(Hexahydro-1H-pyrido[1,2-a]pyrazin-2(6H)-yl)-N-iso-pentyl-1H-benzo[d]imidazole-1-carboxamide] yielded an IC50 on acid ceramidase (pH 4.5) of 200 to 1000 nM. The compound further returned a solubility in data set [1] of 28 µg/mL (≈ 75.8 µM).
Take `COc1cccc2c1ncn2C(=O)NCCOc1ccccc1` [Example 71, 4-Methoxy-N-(2-phenoxyethyl)-1H-benzo[d]imidazole-1-carboxamide]: the IC50 against acid ceramidase (setting [2]) is below 200 nM. The compound further gave a solubility in data set [1] of 9.1 µg/mL (≈ 29.2 µM).
`COc1nc2ccc(N3CCC4(CC3)COC4)cc2n1C(=O)NCCCc1ccccc1` [Example 238a, 2-Methoxy-N-(3-phenylpropyl)-6-(2-oxa-7-azaspiro[3,5]nonan-7-yl)-1H-benzo[d]imidazole-1-carboxamide] returned an IC50 at acid ceramidase (pH 4.5) below 200 nM. Moreover, the solubility in data set [1] is 11 µg/mL (≈ 25.3 µM).
Regarding `COc1nc2ccc(N3CCOCC3)cc2n1C(=O)NCCCc1ccc(F)nc1` [Example 232a, N-(3-(6-Fluoropyridin-3-yl)propyl)-2-methoxy-6-morpholino-1H-benzo[d]imidazole-1-carboxamide], the IC50 at acid ceramidase (pH 4.5) was above 1000 nM. Also, the solubility in data set [1] was determined as 25 µg/mL (≈ 60.5 µM).
In the case of `CN(C)C1CN(c2cccc3c2ncn3C(=O)NCCOc2ccccc2)C1` [Example 353, 4-(3-(Dimethylamino)azetidin-1-yl)-N-(2-phenoxyethyl)-1H-benzo[d]imidazole-1-carboxamide], the IC50 against acid ceramidase (setting [2]) is below 200 nM. For the same compound, in data set [1], the solubility was 16 µg/mL (≈ 42.2 µM).
On acid ceramidase (setting [2]), `CC(C)CCNC(=O)n1c(=O)n(C)c2ncc(-c3cccnc3)cc21` [Example 110, N-iso-Pentyl-3-methyl-2-oxo-6-(pyridin-3-yl)-2,3-dihydro-1H-imidazo[4,5-b]pyridine-1-carboxamide] gave an IC50 above 1000 nM. In data set [1], the solubility came out at 18 µg/mL (≈ 53 µM).
Consider `COc1nc2cc(N3CCC4(CC3)COC4)ccc2n1C(=O)NCCCc1ccccc1` [Example 238b, 2-methoxy-N-(3-phenylpropyl)-5-(2-oxa-7-azaspiro[3.5]nonan-7-yl)-1H-benzo[d]-imidazole-1-carboxamide], for which, on acid ceramidase (pH 4.5), the IC50 is 200 to 1000 nM. The same compound came in with a solubility in data set [1] of 12 µg/mL (≈ 27.6 µM).
Consider `CN1CCC(c2cc3ncn(C(=O)NCCc4ccccc4)c3cc2Cl)CC1` [Example 11b, 6-Chloro-5-(1-methylpiperidin-4-yl)-N-phenethyl-1H-benzo[d]imidazole-1-carboxamide], for which the IC50 against acid ceramidase (setting [2]) was below 200 nM. The same compound yielded a solubility in data set [1] of 23.1 µg/mL (≈ 58.2 µM).
For `O=C(NCCCc1ccccc1)n1cnc2c(N3CC4CNCC4C3)cccc21` (stereo not shown) [Example 265, 4-(Hexahydropyrrolo[3,4-c]pyrrole-2(1H)-yl)-N-(3-phenylpropyl)-1H-benzo[d]imidazole-1-carboxamide], the IC50 on acid ceramidase (pH 4.5) is below 200 nM. For the same compound, the concentration in solution in data set [1] (solubility) was 27 µg/mL (≈ 69.3 µM).
With `COc1nc2c(N3CCN(C)CC3)cccc2n1C(=O)NCCC(C)C` [Example 145, N-iso-Pentyl-2-methoxy-4-(4-methylpiperazin-1-yl)-1H-benzo[d]imidazole-1-carboxamide], the IC50 on acid ceramidase (setting [2]) is above 1000 nM. This compound also came in with a solubility in data set [1] of 46 µg/mL (≈ 128 µM).

(Values after patent US20220380319A1 (Bial - R&D Investments, S.A., priority 2019, published 2022).)
